From US9987299B2, “Methods of improving RNAi in well-differentiated airway epithelia” (University of Iowa Research Foundation, priority 2014, dated 2018)

What was measured:
[1] = test system: CFTR channel activity; assay: Transepithelial short-circuit current and conductance in HAE; type: cell-based, human; conditions: control epithelia with or without PAF, or PAF and NC1 treated cells; sequential addition of agents
[2] = test system: Human CFTR mRNA; assay: CFTR mRNA silencing by CFTR DsiRNA-Transductin in well-differentiated HAE (RT-qPCR); type: cell-based; conditions: CFTR DsiRNA with simultaneous PAF treatment or spiperone pre-treatment
Experimental: (§1) FIG. 4. […] Alternatively, spiperone was applied apically and basolaterally to well-differentiated HAE for 6 hours, and then removed by rinsing before incubation for 4 hours with CFTR-targeting or NC1 DsiRNAs complexed with Transductin. In both cases, 24 hours after transfection, and RNA levels quantified by RT-qPCR. (b) A representative immunoblot from similarly treated wells, but cells were lysed and proteins visualized after immunoprecipitation with anti-CFTR antibody. Alpha-tubulin was used as a loading control. (c) Densitometry readings of immunoblots with results normalized to NC1 treated samples. In all cases, data are from 3 biological replicates and are mean±SD. ***p<0.001, **p<0.01 (Student's t-test).
For well-differentiated airway epithelia, transfection was performed mostly according to the manufacturer's protocol. […]
Total RNA was isolated using SV96 RNA isolation kit (Promega, Madison, Wis.), according to manufacturer's protocol. […] One-fifteenth of the cDNA was then amplified and analyzed by using the 5′-nuclease assay in a 7900 Real Time PCR System (Applied Biosystems, Foster city, CA) using primer-probe pairs reaction buffer and Immolase DNA polymerase (Bioline, Taunton, Mass.). […] Absolute quantification of an mRNA target sequence within an unknown sample was determined by reference to a standard curve. […]

[3] = test system: CFTR protein; assay: CFTR protein levels, immunoprecipitation and immunoblot with densitometry in HAE; type: cell-based, human
Experimental: as §1
HAE were rinsed with PBS and lysed in RIPA buffer (1% NP-40, 0.5% sodium deoxycholate, 0.1% SDS, 50 mM Tris, protease inhibitors [complete; mini, EDTA-free; Roche Biochemicals, Indianapolis, Ind.]) for 30 minutes at 4° C. The lysate were centrifuged in a table top centrifuge at 14,000 rpm for 20 minutes at 4° C. The supernatant was quantified by BCA protein assay kit (Pierce, Rockford, Ill.). Thirty micrograms of protein per lane was separated on a 10% Tris-HCL Criterion precast gel (Bio-Rad, Hercules, Calif.) for western blot analysis. The protein was transferred to Polyvinylidene difluoride membrane and then was probed with goat anti-RSV antibody purchased from Meridian Life Sciences (Memphis, Tenn.). The membrane was imaged, and then stripped with Restore Western Blot Stripping Buffer (Thermo Scientific, Lafayette, Colo.) for 15 minutes. The membrane was rinsed with Tris-buffered saline-Tween (TBS-T) and blocked in 5% bovine serum albumin (Research Products International Corp, Mt. Prospect, Ill.). The membrane was then reprobed with α-tubulin (Sigma-Aldrich).

[4] = test system: Human HPRT mRNA; assay: HPRT mRNA silencing by DsiRNA-Transductin in well-differentiated HAE (RT-qPCR); type: cell-based
Experimental: FIG. 1. […] (a) Well-differentiated HAE cultures grown at the ALI were incubated in adding HPRT-targeting or control NC1 DsiRNA (250 nM) formulated with Transductin containing 0.1 or 0.01 mg LOS (HPRT-targeting DsiRNAs) or 0.1 mg LOS (NC1 DsiRNA). After 4 hours, the apical surface was rinsed and 24 hours later, target RNA levels quantified by RT-qPCR. All mRNA levels were normalized to NC1-treated samples. Mean levels were calculated from three biological replicates, each done in triplicate. ***p<0.001, **p<0.01 (Student's t-test). […] Samples were normalized to NC1-treated cells. ***p<0.001, **p<0.01 (Student's t-test). […] PAFRa was present throughout transfection in cells pre-treated with the reagent. Cells were harvested and RNA quantified 24 hrs later. Samples were normalized to NC1-treated cells. **p<0.01 (Student's t-test).
FIG. 3. Spiperone improves RNAi responses in DsiRNA transduced cells. HAE were pre-treated with various small molecules at the concentration indicated. The drugs were added to the apical surface and the basolateral media for 6 hours. Both surfaces were then washed and HPRT or NC1 DsiRNA formulated with Transductin added to the apical surface. The cells were washed after 4 hours, and RT-qPCR done on cell lysates harvested 24 hours later.
Human airway epithelial cells were obtained from trachea and bronchi of lungs removed for organ donation from non-CF individuals. Cells were isolated by enzyme digestion as previously described. Following enzymatic dispersion, cells were seeded at a density of 5×10^5 cells/cm^2 onto collagen-coated, 0.6 cm^2 semi permeable membrane filters (Millipore polycarbonate filters; Millipore Corp., Bedford, Mass.). The cells were maintained at 37° C. in a humidified atmosphere of 5% CO2 air. Twenty-four hours after plating, the apical media was removed and the cells were maintained at an air-liquid interface (ALI) to allow differentiation of the epithelium. The culture medium consisted of 1:1 ratio mix of Dulbecco's modified Eagle's medium (DMEM)/Ham's F12, 5% Ultroser G (Biosepra S A, Cedex, France), 100 U/ml penicillin, 100 μg/ml streptomycin, 1% nonessential amino acids and 0.12 U/ml insulin. Studies were performed on well-differentiated epithelia approximately 4 to 6 weeks after initiation of the ALI cultures conditions. HEp-2 cells were maintained in MEM substituted with 10% fetal bovine serum and 100 U/ml penicillin.
PAF was purchased from Sigma-Aldrich. The reagent was reconstituted in ethanol and used in the experiment at a concentration of 200 nM or as described in the figures. PAF was added to the transfection mixture at the apical surface as well as to the basolateral media. PAFRa (WEB 2086) was purchased from Sigma-Aldrich. […] The reagent was incubated with the cells throughout the transfection period.
All the small molecules tested were purchased from Sigma-Aldrich. The chemicals were reconstituted in appropriate solutions as recommended by the manufacturer. The epithelia were pre-treated with drugs for 6 hours at concentrations used in the CMAP study or noted in the published literature. Following drug treatment, the epithelia were transduced with DsiRNA as described above.
For well-differentiated airway epithelia, transfection was performed mostly according to the manufacturer's protocol. In all cases, the apical surface of epithelia was rinsed twice with PBS before adding the transfection mixture to the apical surface. DsiRNAs were used at a concentration of 250 nM. The mixture was left on the cells for 4 hours after which the medium was removed, the apical surface rinsed with PBS and the cells incubated further for 24 hours. For all experiments, a minimum of 3 biological replicates, in triplicate, were done.
Total RNA was isolated using SV96 RNA isolation kit (Promega, Madison, Wis.), according to manufacturer's protocol. […]

[5] = reference [38]; cited from earlier work
[6] = test system: Human HPRT mRNA; conditions: Transductin alone or combined with enhancers of macropinocytosis; reference [17]; cited from earlier work

Compound: O=C(CNc1ccc2ccccc2c1)N/N=C/c1cc(Br)c(O)c(Br)c1O [GlyH-101]
- cAMP-activated transepithelial short-circuit current (Isc and ΔIsc) and conductance (Gt) [1]: decreased both values

Compound: O=C(CCCN1CCC2(CC1)C(=O)NCN2c1ccccc1)c1ccc(F)cc1 [Spiperone]
- silencing of CFTR mRNA levels [2]: approximately 30%
- CFTR protein levels compared to controls ([3]; PAF or spiperone and CFTR DsiRNA-Transductin, immunoprecipitation, western blot): reduced CFTR protein levels
- fully glycosylated CFTR band C ([3]; densitometry, normalized to NC1 treated samples): significantly decreased
- spiperone dose-response on silencing ([4]; increasing doses, 6 hours pretreatment (FIG. 9)): marginal increases in silencing with increasing doses
- silencing of HPRT mRNA levels ([4]; spiperone 10 μM pretreatment before DsiRNA transduction): 25%

Compound: Cc1nnc2n1-c1sc(CCC(=O)N3CCOCC3)cc1C(c1ccccc1Cl)=NC2 [WEB2086]
- inhibition of HPRT silencing in cells transduced with LOS or PAF ([4]; 1 μM PAFRa): partially inhibited
- inhibition of HPRT silencing of LOS- or PAF-assisted transduction ([4]; 100 μM PAFRa, pre- or post-treatment): completely inhibited

Compound: CC(C)Cn1c(=O)n(C)c(=O)c2[nH]cnc21 [isobutylmethylxantine (IBMX), isobutylmethylxantine]
- cAMP-activated transepithelial short-circuit current (Isc and ΔIsc) and conductance (Gt) [1]: increased

Compound: CCCCCCCCCCCCCC(=O)O[C@@H]1[C@@H](C)[C@@]2(O)[C@@H](C=C(CO)C[C@]3(O)C(=O)C(C)=C[C@@H]23)[C@@H]2C(C)(C)[C@]12OC(C)=O [phorbol ester]
- toxicity [5]: toxic and unsuitable for repeated applications or use in vivo
- gene silencing in well differentiated HAE with Transductin-DsiRNA plus phorbol ester ([4]; applicant's unpublished data): better silencing

Compound: epidermal growth factor (NSDSECPLSHDGYCLHDGVCMYIEALDKYACNCVVGYIGERCQYRDLKWWELR; Epidermal growth factor; UniProt P01133 971-1023, looked up) [EGF, enhancer of macropinocytosis]
- gene silencing in well differentiated HAE with Transductin-DsiRNA, previously observed [6]: very modest knockdown
